Reference: patent publication US20230390235A1, “THERAPEUTIC AGENT FOR COVID-19” (priority 2020, published 2023)
Like-named read-outs stand apart in the source and are kept apart here.

Legend:
[1] = tested on: SARS-CoV-2 virus (USA_WA1/2020); test: microbe, parasite or virus in culture; type: cell-based
in vivo = test: in vivo; design: species or system S.D. rats; conditions: male, S.D., rat, po
Protocol: Male S.D. rats weighing 160 to 210 g were used for the examination of SJA-6017. Each animal was kept in a room at a temperature of 23±2° C., a humidity of 55±10%, with lighting for 12 hours, and a ventilation frequency of 15 times/hour or more. The rats were fasted from the night before administration and feeding was resumed immediately after the administration. Water was taken freely.
(§1) For the examination of SNJ-1945, four groups of 1, 3, 10, and 30 mg/kg (n=3 for each) were set. For the examination of SJA-6017, two groups of 100 mg/kg (n=3 for each) and 500 mg/kg (n=8 for each) were set.
For SJA-6017, sodium carboxymethylcellulose was dissolved in distilled water to a concentration of 0.5% (w/v). A test substance was suspended in the resultant to prepare samples having concentrations of 10% (for […]) and 2% (for 100 mg/kg).
(§2) SNJ-1945 was orally administered forcibly a single time by using a gastric sonde at doses of 1, 3, 10, and 30 mg/4 mL/kg. SJA-6017 was orally administered forcibly a single time using a gastric sonde at a dose of 5 mL/kg.
In the SJA-6017 administration group, blood samples were collected from the abdominal aorta under ether anesthesia 30 minutes and 1, 2, 4 and 8 hours after administration. The resulting blood was immediately centrifuged at 5,000 rpm for 10 minutes, and plasma was collected.
Plasma (200 μL) obtained from the SJA-6017 administration group was placed in a brown Spitz tube, and 0.01 M HCl (0.5 mL) was added thereto, and diethyl ether (3 mL) was further added, followed by shaking for 10 minutes. Thereafter, centrifugation (3,000 rpm) for 10 minutes was performed to separate the aqueous layer from the diethyl ether phase. The lower aqueous layer alone was frozen in dry-ice acetone, and the diethyl ether layer was separated into another brown Spitz tube. Thereafter, drying was conducted under reduced pressure, and acetonitrile (100 μL) and a 0.01M hydrochloric acid solution (200 μL) of 5 mM phenylhydrazine hydrochloride were added, followed by stirring and dissolving. The solution was transferred to an HPLC vial and allowed to react for 1 hour at 40° C. using a water bath. 150 μL of this sample solution was analyzed by HPLC.
• Detector: UV absorbance spectrophotometer (measurement • wavelength: 272 nm) • Column: Capcell-pak SG-120 (250 mm) • Column temperature: 40° C. • Mobile phase: 0.02 M phosphate buffer (pH of 7.0)/acetonitrile mixture (45:55) • Flow rate: 1.0 mL/min
Cmax and AUC0-8 were calculated from the mean plasma concentration at each time point.

[2] = tested on: SARS-CoV-2 S pseudotype virus (wild type: WT); type: cell-based; conditions: 100 μM, ACE2-expressing HEK293T cells, GFP fluorescence, FIG. 1
[3] = Pharmacokinetic (PK) measurement of SNJ-1945, oral, rats, LC/MS/MS; type: in vivo; conditions: male, S.D., rat plasma; for AUC(0-t): read-out: AUC0-8
Protocol: Eight-week-old male S.D. rats were used for the examination of SNJ-1945. Each animal was kept in a room at a temperature of 21.6° C. to 22.3° C., a humidity of 47.7% to 60.3%, with lighting for 12 hours/day, and a ventilation frequency of 6 to 20 times/hour. The rats were fasted from the evening of the day before administration, and feeding was resumed after the completion of blood sampling, which was conducted 8 hours after the administration. Water was taken freely.
as §1
For SNJ-1945, methylcellulose was dissolved in water for injection to a concentration of 1 w/v %. A test substance was suspended in the resultant to prepare samples having concentrations of 0.25 mg/mL (for 1 mg/kg), 0.75 mg/mL (for 3 mg/kg), 2.5 mg/mL (for 10 mg/kg), and 7.5 mg/mL (for 30 mg/kg). The administration solution was dispensed into brown glass bottles.
as §2
In the SNJ-1945 administration group, blood samples were taken over time from the subclavian vein 30 minutes and 1, 2, 4, and 8 hours after administration. The obtained blood was immediately centrifuged at 10000×g for 3 minutes, and plasma was collected.
Plasma (20 μL) obtained from the SNJ-1945 administration group was placed in a polypropylene tube, methanol (20 μL) was added thereto, and an internal standard solution (SNJ-1945-d7; 100 μL) was added thereto, followed by stirring for about 5 minutes. Thereafter, centrifugation (10,000×g) was performed for 5 minutes, and 100 μL of a supernatant was transferred to another polypropylene tube. 1 mmol/L EDTA-2K (100 μL) was added, followed by stirring for about 10 seconds. The solution was set in an autosampler and measured within 72 hours.
A Shimadzu 20AD LC System 2 (prominence UFLCXR system; Shimadzu Corporation) and a mass spectrometer (API5000; AB SCIEX) were used as measuring instruments. High-performance liquid chromatography was performed according to the following conditions. Column: CAPCELL CORE AQ, 2.7 μm, 2.1×50 mm (Shiseido Japan Co., Ltd.); column temperature: 60° C.; mobile phase A: 5 mmol/L ammonium hydrogen carbonate/l mmol/LEDTA-2K (500:1, v/v); mobile phase B: methanol; flow rate: 0.8 mL/min.
The mass spectrometer was set according to the following conditions: ionization mode: turbo ion spray; measurement mode: multiple reaction monitoring; detection mode: negative; collision gas: N2, 6 (number of valves opened); curtain gas: N2, 15 psi, ion source gas 1: air, 80 psi; ion source gas 2: air, 80 psi; ion spray voltage: −4500 V; temperature: 500° C.; channel electron multiplier: 1800 V or 2000 V. Monitoring ions and dwell time were set as shown in Table 4 below.
The measurement results of plasma concentration were analyzed by non-compartmental analysis in the pharmacokinetic analysis software Phoenix WinNonlin Ver. 6.3 (Pharsight Corporation as part of Certara), and each pharmacokinetic parameter was calculated in accordance with the method shown in Table 5 below.

[4] = tested on: ACE2-expressing HEK293T cells
[5] = Severe acute respiratory syndrome coronavirus 2, Vero C1008, 72 h, read-out: CPE reduction (IC50)
[6] = Severe acute respiratory syndrome coronavirus 2, Vero C1008, 72 h; read-out: CPE reduction (IC50)

For CCN(CC)CCCC(C)Nc1ccnc2cc(Cl)ccc12 (centres unmarked) [Chloroquine], the IC50 [1, 5] was 2.06 µM.

For CCOC(=O)[C@H]1O[C@@H]1C(=O)N[C@@H](CC(C)C)C(=O)NCCC(C)C [E64d], the IC50 ([1]; read-out: CPE reduction (IC50)) was 8.23 µM.

For CCN(CCO)CCCC(C)Nc1ccnc2cc(Cl)ccc12 (centres unmarked) [Hydroxychloroquine], the IC50 [1, 5] was 6.49 µM.

CCC(CC)COC(=O)[C@H](C)N[P@](=O)(OC[C@H]1O[C@@](C#N)(c2ccc3c(N)ncnn23)[C@H](O)[C@@H]1O)Oc1ccccc1 [Remdesivir] showed an IC50 [1, 5] of 10.6 µM.

Molecule CC(C)C[C@@H](C=O)NC(=O)[C@@H](NS(=O)(=O)c1ccc(F)cc1)C(C)C [SJA-6017] has an IC50 [1, 6] of 0.21 µM, an AUC(0-t) (in vivo; 100 mg/kg) of 679 ng·h/mL and a Cmax (in vivo; 100 mg/kg) of 284 ng/mL. For the same molecule, the AUC(0-t) (in vivo; 500 mg/kg) was 1840 ng·h/mL and the Cmax (in vivo; 500 mg/kg) was 348 ng/mL.

For COCCOCCOC(=O)N[C@@H](CC(C)C)C(=O)N[C@@H](Cc1ccccc1)C(=O)C(=O)NC1CC1 [SNJ-1945], the IC50 [1, 6] was 1.52 µM, the “entry inhibition of pseudotype virus into cells” value [2] was “inhibits entry” and the Cmax ([3]; single oral dose 1 mg/kg) was 186 ng/mL. For the same molecule, the AUC(0-t) ([3]; single oral dose 1 mg/kg) was 168 ng·h/mL, the Cmax ([3]; single oral dose 3 mg/kg) was 391 ng/mL and the AUC(0-t) ([3]; single oral dose 3 mg/kg) was 380 ng·h/mL. For the same molecule, the Cmax ([3]; single oral dose 10 mg/kg) was 553 ng/mL, the AUC(0-t) ([3]; single oral dose 10 mg/kg) was 691 ng·h/mL and the Cmax ([3]; single oral dose 30 mg/kg) was 821 ng/mL. The AUC(0-t) ([3]; single oral dose 30 mg/kg) was 1170 ng·h/mL and the “highest concentration at which test compound did not show cytotoxicity” value [4] was 100 µM.
